# Key:
# [1] = tested on: HBV; settings: read-out: inhibition of HBV EC50; cited from earlier work
# [2] = target: T1, adenosine deaminase (EC.3.5.4.4. from calf intestinal mucosa) (Bos taurus, UniProt P56658); set-up: adenosine deaminase (EC.3.5.4.4. from calf intestinal mucosa); from tissue; host or cells: calf intestinal mucosa; settings: literature value (ref. 28); cited from earlier work
# T1 sequence (P56658 1-363): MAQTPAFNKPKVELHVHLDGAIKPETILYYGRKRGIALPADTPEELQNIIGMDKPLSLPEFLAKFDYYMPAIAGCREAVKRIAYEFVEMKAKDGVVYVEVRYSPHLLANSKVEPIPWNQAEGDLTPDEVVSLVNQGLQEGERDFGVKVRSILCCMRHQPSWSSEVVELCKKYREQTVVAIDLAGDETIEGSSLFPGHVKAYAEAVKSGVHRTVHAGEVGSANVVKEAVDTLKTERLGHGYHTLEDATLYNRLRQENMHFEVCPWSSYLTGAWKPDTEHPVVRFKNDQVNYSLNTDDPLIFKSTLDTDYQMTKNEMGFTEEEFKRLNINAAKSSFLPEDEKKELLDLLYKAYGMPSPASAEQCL
# [3] = target: T2, adenosine deaminase (EC 3.5.4.4) (Bos taurus, UniProt P56658); assay: in vitro; settings: bovine, pH 7.4
# T2 sequence (P56658 1-363): T1 sequence (P56658 1-363)
# Procedure: Assays were performed at 25° C. in phosphate buffer solution (pH 7.4) with substrate concentrations in the range of 15-100 μM and with 0.15 unit of adenosine deaminase (EC.3.5.4.4. from calf intestinal mucosa). The assays were monitored with a UV spectrometer at 265 nm. Initially, the qualitative assays were performed with D-β-2′-F-4′-S-d4A 24 (200 μM) in the presence of 0.24 unit of adenosine deaminase for 120 minutes to determine whether it is a substrate of this enzyme. The concentration (ct) of each substrate at a certain time (t) was calculated from the absorbance (At) at that time (t), where it was assumed that the total change of absorbance (A0−A∞) was directly related to the disappearance of the substrate.^35 Initial hydrolysis rates for each substrate concentration were measured manually through graphical curve fitting of the concentration versus time data for reaction of each substrate. From Lineweaver-Burke plot of these initial rates, Vmax (maximum velocity) and KM (Michaelis constant) were obtained for each substrate and kcat was also calculated with 0.15 unit of the enzyme (M.W. 33,000) in 2 mL of buffer solution.
smiles,measurement,setting,value
"Nc1nc(=O)n([C@@H]2CS[C@H](CO)O2)cc1F [(−)-FTC, β-2′,3′-dideoxy-5-fluoro-3′-thiacytidine]",EC50,[1],240 nM
Nc1ncnc2c1ncn2[C@@H]1O[C@H](CO)C=C1F [D-2′-F-d4A],Km,[2],23 µM
"Nc1ncnc2c1ncn2[C@@H]1O[C@H](CO)[C@@H](O)[C@H]1O [Adenosine, reference compound]",half-life at 20 μM,[3],30 s

# Reference: patent publication US6949522B2, “β-2′- or 3′-halonucleosides” (Pharmasset, Inc., priority 2001, dated 2005)
